Source: patent publication US11985976B2, “Mixture of mectins and pyrethroids and uses thereof” (Valent BioSciences LLC, priority 2020, dated 2024)
Values joined by “and” are separate entries in the source; they are usually repeats but may differ in a detail not shown here. Identical values can stand only once. Like-named read-outs stand apart in the source and are kept apart here.

What was measured:
[1] = tested on: Permethrin Susceptible A. aegypti; test: Wind tunnel bioassay, adult mosquitoes (Example 1); type: in vivo
Protocol: (§1) In this bioassay, a wind tunnel bioassay was performed in New Mexico in July 2017. Aedes aegypti that were known to be resistant (single knockdown resistance (“KDR”) mutation) and susceptible to permethrin were used in the studies. The following solutions were applied to adult A. aegypti mosquitoes: 1) 1.5% abamectin; 2) 1.5% ivermectin; 3) 2% fenpropathrin; 4) a mixture of 2% fenpropathrin and 1.5% abamectin; 5) a mixture of 2% fenpropathrin and 1.5% abamectin; 6) a mixture of 2% fenpropathrin and 1.5% ivermectin; and 7) a mixture of 2% fenpropathrin and 1.5% ivermectin.
(§2) To determine if the mixtures provided unexpected results, the observed combined efficacy (“OCE”) was divided by the expected combined efficacy (“ECE”) wherein the expected ECE is calculated by the Abbott method: ECE=A+B−(AB/100), wherein ECE is the expected combined efficacy and in which A and B are the percent control given by the single active ingredients. If the ratio between the OCE of the mixture and the ECE of the mixture is greater than 1, then greater than expected interactions are present in the mixture. (Gisi, Synergistic Interaction of Fungicides in Mixtures, The American Phytopathological Society, 86:11, 1273-1279, 1996).

[2] = tested on: Permethrin Resistant A. aegypti (single KDR mutation); type: in vivo, Aedes aegypti
Protocol: as §1, §2

[3] = tested on: Permethrin Susceptible C. quinquefasciatus; test: Wind tunnel bioassay, adult mosquitoes (Example 4); type: in vivo, Culex quinquefasciatus
Protocol: In this bioassay, a wind tunnel bioassay was performed in New Mexico in March 2020. C. quinquefasciatus that were known to be resistant and susceptible to permethrin were used in the studies. […] Percent mortality was recorded at 15 minutes, 1 hour, 24 hours and 48 hours.

[4] = tested on: Permethrin Resistant C. quinquefasciatus; test: Wind tunnel bioassay, adult mosquitoes (Example 4); type: in vivo, Culex quinquefasciatus
Protocol: In this bioassay, a wind tunnel bioassay was performed in New Mexico in March 2020. C. quinquefasciatus that were known to be resistant and susceptible to permethrin were used in the studies. The following solutions were applied to adult C. quinquefasciatus mosquitoes: 1) 5% permethrin; 2) a mixture of 5% permethrin and, 1.5% abamectin; 3) a mixture of 5% permethrin, 1.5% abamectin and 1% C8, 9, 10 fatty acids; 4) a mixture of 5% permethrin and 1.5% ivermectin; and 5) a mixture of 5% permethrin, 1.5% ivermectin and 1% C8, 9, 10 fatty acids. Percent mortality was recorded at 15 minutes, 1 hour, 24 hours and 48 hours.

[5] = tested on: Permethrin Susceptible C. quinquefasciatus; test: Wind tunnel bioassay, adult mosquitoes (Example 5); type: in vivo
Protocol: (§3) If the ratio between the OCE of the mixture and the ECE of the mixture is greater than 1, then greater than expected interactions are present in the mixture. (Gisi, Synergistic Interaction of Fungicides in Mixtures, The American Phytopathological Society, 86:11, 1273-1279, 1996).
(§4) In this bioassay, a wind tunnel bioassay was performed in New Mexico in March 2020. C. quinquefasciatus that were known to be resistant and susceptible to permethrin were used in the studies. The following solutions were applied to adult C. quinquefasciatus mosquitoes: 1) 1.5% abamectin; 2) 1.5% ivermectin; 3) 5% pyrethrum; 4) a mixture of 5% pyrethrum and 1.5% abamectin; and 5) a mixture of 5% pyrethrum and 1.5% ivermectin. Percent mortality was recorded at 15 minutes, 1 hour, 24 hours and 48 hours.

[6] = tested on: Permethrin Resistant C. quinquefasciatus; type: in vivo
Protocol: as §3, §4

Row | Compound | % Mortality [1] | % Mortality [2] | % Mortality ([3]; 1 Hr) | % Mortality ([3]; 15 Min) | % Mortality ([3]; 24 Hr) | % Mortality ([3]; 48 Hr) | % Mortality ([4]; 1 Hr) | % Mortality ([4]; 15 Min) | % Mortality ([4]; 24 Hr) | % Mortality ([4]; 48 Hr) | % Mortality ([5]; 1 Hr) | % Mortality ([5]; 15 Min) | % Mortality ([5]; 24 Hr) | % Mortality ([5]; 48 Hr) | % Mortality ([6]; Example 5, 1 Hr) | % Mortality ([6]; Example 5, 15 Min) | % Mortality ([6]; Example 5, 24 Hr) | % Mortality ([6]; Example 5, 48 Hr)
1 | CC1(C)C(C(=O)OC(C#N)c2cccc(Oc3ccccc3)c2)C1(C)C (stereo not drawn) [2.0% fenpropathrin, fenpropathrin] | 99.6% | 76% and 75.8% | – | – | – | – | – | – | – | – | – | – | – | – | – | – | – | –
2 | CC1(C)C(C=C(Cl)Cl)C1C(=O)OCc1cccc(Oc2ccccc2)c1 (stereo not drawn) [5% permethrin, permethrin] | – | – | 100% | 65% | 100% | 100% | 78.8% | 0% | 65% | 66.3% | – | – | – | – | – | – | – | –
3 | abamectin [1.5% abamectin] | 100% | 91% and 91.3% | – | – | – | – | – | – | – | – | 73.8% | 15% | 91.3% | 92.5% | 26.3% | 0% | 78.8% | 80%
4 | ivermectin [1.5% ivermectin] | 100% | 64% and 62.9% | – | – | – | – | – | – | – | – | 62.5% | 5% | 100% | 100% | 42.5% | 0% | 88.8% | 91.3%
